One experiment deals with CFTR (Homo sapiens, UniProt P13569). Description: standard Ussing Chamber Assay for CFTR potentiator activity. The format is cell-based. The procedure: tert-Butyl N-[(6R,12R)-6-benzyloxy-12-methyl-6,15-bis(trifluoromethyl)-13,19-dioxa-3,4,18-triazatricyclo[12.3.1.12,5]nonadeca-1(18),2,4,14,16-pentaen-17-yl]-N-tert-butoxycarbonyl-carbamate (8.6 g, 11.77 mmol) was dissolved in ethanol (172 mL) then the flask was cycled 3 times between vacuum/nitrogen. Treated the mixture with 10% Pd/C (50% water wet, 1.8 g of 5% w/w, 0.8457 mmol) then cycled 3 times between vacuum/nitrogen and 3 times between vacuum/hydrogen and then stirred vigorously under hydrogen (balloon) at room temperature for 18 hours. The mixture was cycled 3 times between vacuum/nitrogen, filtered over Celite, washing with ethanol, and then the filtrate was evaporated to give 7.3 g of tert-butyl N-tert-butoxycarbonyl-N-[(6R,12R)-6-hydroxy-12-methyl-6,15-bis(trifluoromethyl)-13,19-dioxa-3,4,18-triazatricyclo[12.3.1.12,5]nonadeca-1(18),2,4,14,16-pentaen-17-yl]carbamate an off-white solid. 1H NMR and MS confirmed the expected product. CFTR modulating activity was confirmed using a standard Ussing Chamber Assay for CFTR potentiator activity.

Experiment [1] has as its target T1, CFTR-mediated short-circuit current in F508del/MF-HBE cells (Homo sapiens, UniProt P13569, DEL508-508).
T1 construct: endogenous in cells; host or cells: primary human bronchial epithelial cells from CF subjects (F508del/MF)
Kind of experiment: HBE2 assay: Ussing chamber assay of CFTR-mediated short-circuit currents. The conditions noted are these: single fixed concentration 3 μM in combination with 44 nM (6R,12R)-17-amino-12-methyl-6,15-bis(trifluoromethyl)-13,19-dioxa-3,4,18-triazatricyclo[12.3.1.12,5]nonadeca-1(18),2,4,14,16-pentaen-6-ol, 20% human serum. The format is cell-based. On the procedure:
Ussing chamber experiments were performed using human bronchial epithelial (HBE) cells derived from CF subjects heterozygous for F508del and a minimal function CFTR mutation (F508del/MF-HBE) and cultured as previously described (Neuberger T, Burton B, Clark H, Van Goor F Methods Mol Biol 2011:741:39-54). After four days the apical media was removed, and the cells were grown at an air liquid interface for >14 days prior to use.
To isolate the CFTR-mediated short-circuit (ISC) current, F508del/MF-HBE grown on Costar® Snapwell™ cell culture inserts were mounted in an Ussing chamber and the transepithelial ISC was measured under voltage-clamp recording conditions (Vhold=0 mV) at 37° C. The basolateral solution contained (in mM) 145 NaCl, 0.83K2HPO4, 3.3 KH2PO4, 1.2 MgCl2, 1.2 CaCl2), 10 Glucose, 10 HEPES (pH adjusted to 7.4 with NaOH) and the apical solution contained (in mM) 145 NaGluconate, 1.2 MgCl2, 1.2 CaCl2), 10 glucose, 10 HEPES (pH adjusted to 7.4 with NaOH) and 30 μM amiloride to block the epithelial sodium channel. […] The CFTR-mediated ISC (μA/cm^2) for each condition was determined from the peak forskolin response to the steady-state current following inhibition.
The activity of the CFTR corrector compounds on the CFTR-mediated ISC was determined in Ussing chamber studies as described above. […]

The values below come from patent US12612416B2, “Modulators of cystic fibrosis transmembrane conductance regulator” (VERTEX PHARMACEUTICALS INCORPORATED, priority 2020, dated 2026).

T1 sequence (P13569 with tags, fused parts or gaps DEL508-508): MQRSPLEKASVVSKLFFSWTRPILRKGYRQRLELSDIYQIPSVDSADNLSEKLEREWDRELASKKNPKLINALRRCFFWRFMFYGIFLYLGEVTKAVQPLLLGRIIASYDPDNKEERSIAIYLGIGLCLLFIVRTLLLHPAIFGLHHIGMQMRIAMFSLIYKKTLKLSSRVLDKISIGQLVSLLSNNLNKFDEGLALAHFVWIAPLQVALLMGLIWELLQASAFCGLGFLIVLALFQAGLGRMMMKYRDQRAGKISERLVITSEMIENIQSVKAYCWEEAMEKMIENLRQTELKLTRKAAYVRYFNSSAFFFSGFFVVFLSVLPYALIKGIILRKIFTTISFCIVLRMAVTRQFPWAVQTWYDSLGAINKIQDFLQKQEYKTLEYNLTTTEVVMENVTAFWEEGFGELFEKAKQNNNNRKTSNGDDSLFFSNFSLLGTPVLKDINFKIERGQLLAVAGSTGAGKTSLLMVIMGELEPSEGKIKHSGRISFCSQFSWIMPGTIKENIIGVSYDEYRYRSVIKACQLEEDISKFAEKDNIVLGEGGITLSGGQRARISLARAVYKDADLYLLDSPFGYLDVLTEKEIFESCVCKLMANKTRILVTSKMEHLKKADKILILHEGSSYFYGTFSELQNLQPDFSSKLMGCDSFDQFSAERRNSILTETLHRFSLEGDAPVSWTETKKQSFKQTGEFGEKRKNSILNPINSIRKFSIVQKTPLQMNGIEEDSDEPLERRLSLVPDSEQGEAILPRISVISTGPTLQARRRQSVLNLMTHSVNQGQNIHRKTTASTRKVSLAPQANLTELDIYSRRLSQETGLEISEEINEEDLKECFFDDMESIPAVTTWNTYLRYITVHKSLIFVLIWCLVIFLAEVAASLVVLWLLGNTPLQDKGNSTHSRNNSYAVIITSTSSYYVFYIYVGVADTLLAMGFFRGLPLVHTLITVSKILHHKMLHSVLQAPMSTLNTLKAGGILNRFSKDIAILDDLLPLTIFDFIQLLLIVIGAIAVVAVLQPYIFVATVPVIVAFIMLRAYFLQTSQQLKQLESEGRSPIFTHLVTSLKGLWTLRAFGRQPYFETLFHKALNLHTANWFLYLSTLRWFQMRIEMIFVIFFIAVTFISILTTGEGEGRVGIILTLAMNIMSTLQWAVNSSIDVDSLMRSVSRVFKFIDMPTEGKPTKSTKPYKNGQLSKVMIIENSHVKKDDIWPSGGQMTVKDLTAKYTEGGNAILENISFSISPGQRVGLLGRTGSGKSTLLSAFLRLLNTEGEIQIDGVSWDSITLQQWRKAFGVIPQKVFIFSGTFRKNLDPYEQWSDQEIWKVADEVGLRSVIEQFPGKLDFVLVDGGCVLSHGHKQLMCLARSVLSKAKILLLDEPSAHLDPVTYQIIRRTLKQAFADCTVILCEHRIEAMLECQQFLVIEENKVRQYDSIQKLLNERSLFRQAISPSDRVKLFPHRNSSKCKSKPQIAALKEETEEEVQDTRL
Chain of CFTR (P13569 whole entry, species assumed): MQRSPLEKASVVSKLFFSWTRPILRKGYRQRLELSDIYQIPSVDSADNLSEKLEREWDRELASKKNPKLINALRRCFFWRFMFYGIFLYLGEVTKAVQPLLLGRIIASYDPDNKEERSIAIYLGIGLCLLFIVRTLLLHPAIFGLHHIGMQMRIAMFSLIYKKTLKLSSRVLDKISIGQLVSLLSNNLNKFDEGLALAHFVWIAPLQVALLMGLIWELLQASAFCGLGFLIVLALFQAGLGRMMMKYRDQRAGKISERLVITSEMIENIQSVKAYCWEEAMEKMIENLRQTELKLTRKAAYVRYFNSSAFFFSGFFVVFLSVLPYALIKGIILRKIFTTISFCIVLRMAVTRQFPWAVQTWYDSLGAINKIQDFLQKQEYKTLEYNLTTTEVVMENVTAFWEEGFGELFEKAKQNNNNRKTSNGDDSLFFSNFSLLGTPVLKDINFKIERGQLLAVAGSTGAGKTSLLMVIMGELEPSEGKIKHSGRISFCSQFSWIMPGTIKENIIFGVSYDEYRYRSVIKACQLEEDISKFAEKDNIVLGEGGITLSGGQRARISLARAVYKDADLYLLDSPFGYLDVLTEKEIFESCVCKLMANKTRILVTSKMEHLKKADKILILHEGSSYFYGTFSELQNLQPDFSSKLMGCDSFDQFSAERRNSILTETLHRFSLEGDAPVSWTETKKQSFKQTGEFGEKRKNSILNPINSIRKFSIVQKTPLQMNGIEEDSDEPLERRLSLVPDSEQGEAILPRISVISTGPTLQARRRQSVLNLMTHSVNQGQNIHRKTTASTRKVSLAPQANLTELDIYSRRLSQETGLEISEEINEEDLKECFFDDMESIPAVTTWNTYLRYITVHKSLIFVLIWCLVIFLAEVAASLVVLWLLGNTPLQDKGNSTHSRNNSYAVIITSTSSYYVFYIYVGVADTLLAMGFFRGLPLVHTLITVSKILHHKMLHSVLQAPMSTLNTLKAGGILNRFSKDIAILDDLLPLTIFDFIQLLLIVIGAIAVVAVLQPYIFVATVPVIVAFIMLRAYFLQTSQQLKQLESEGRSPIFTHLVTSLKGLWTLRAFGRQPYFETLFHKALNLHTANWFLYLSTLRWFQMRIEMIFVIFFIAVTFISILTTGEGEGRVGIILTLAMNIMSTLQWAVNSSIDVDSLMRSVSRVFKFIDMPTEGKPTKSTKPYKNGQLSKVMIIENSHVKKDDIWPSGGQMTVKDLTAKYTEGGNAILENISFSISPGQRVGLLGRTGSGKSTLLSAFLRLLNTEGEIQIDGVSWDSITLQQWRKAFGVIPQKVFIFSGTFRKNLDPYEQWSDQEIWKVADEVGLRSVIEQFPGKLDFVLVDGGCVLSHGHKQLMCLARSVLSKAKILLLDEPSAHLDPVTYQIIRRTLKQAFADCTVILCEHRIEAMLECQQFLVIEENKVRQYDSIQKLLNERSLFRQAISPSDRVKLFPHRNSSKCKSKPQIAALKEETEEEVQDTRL

On to `C[C@@H]1CCCCC[C@](O)(C(F)(F)F)C2=NN=C(O2)c2nc(c(C(F)(F)F)cc2N)O1` [(6R,12R)-17-amino-12-methyl-6,15-bis(trifluoromethyl)-13,19-dioxa-3,4,18-triazatricyclo[12.3.1.12,5]nonadeca-1(18),2,4,14,16-pentaen-6-ol], for which, at CFTR, the “CFTR modulating activity (CFTR potentiator activity)” value is on record as “confirmed”.
For `Cc1cccc(C)c1-c1cc2nc(n1)NS(=O)(=O)c1cccc(c1)C(=O)N(C1CC3(CC(NC(=O)OC(C)C)C3)C1)[C@H](CC(C)(C)C)CC2` (stereo partly drawn) [Compound 69], the “HBE2 Activity at 3 μM” value in experiment [1] is on record as “+++ (+++ is >60%)”.
In the case of `Cc1cccc(C)c1-c1cc2nc(n1)NS(=O)(=O)c1cccc(c1)C(=O)N(Cc1cncc(N(C)C3CCC3)n1)[C@H](CC(C)(C)C)CC2` [Compound 72], the “HBE2 Activity at 3 μM” value in experiment [1] is “+++ (+++ is >60%)”.
